# In patent US5070096A, “Quinolinoxy phenylsulphonamides” (Bayer Aktiengesellschaft, priority 1986, dated 1991):
# Legend:
# [1] = test system: lipoxygenase; experiment: Inhibition of lipoxygenase (liberation of leukotriene B4 in polymorphonuclear rat leukocytes, calcium ionophore, HPLC); type: cell-based; details: LTB4 liberation in rat PMN
# Protocol: (§1) The liberation of leukotriene B4 (LTB4) in polymorphonuclear rat leukocytes (PMN) after addition of substances and calcium ionophore was determined by means of reverse phase HPLC according to Sorgeat, P. et al, Proc. Nat. Acad. Sci. 76, 2148-2152 (1979) as a measure of the lipoxygenase inhibition. The in vivo activity of the compounds was determined using the mouse ear inflammation model according to Young, J. M. et al., J. of Investigative Dermatology 82, 367-371 (1984).
# [2] = test system: mouse ear inflammation; experiment: Mouse ear inflammation test; type: in vivo
# Protocol: as §1
SMILES,"IC50 value, inhibition of lipoxygenase [1] [ng/mL]","Inhibition of inflammation, % ([2]; 2 mg/ear topical) [%]","Inhibition of inflammation, % ([2]; 100 mg/kg per os) [%]"
"O=S(=O)(Nc1ccc(OCc2ccc3ccccc3n2)cc1)c1cccc(C(F)(F)F)c1 [Example 74, N-[4-(quinolin-2-yl-methyloxy)phenyl]-3-trifluoromethylbenzenesulphonamide]",100,–,–
"CCCCS(=O)(=O)Nc1ccc(OCc2ccc3ccccc3n2)cc1 [Example 75, N-[4-(quinolin-2-yl-methyloxy)phenyl]butanesulphonamide]",57,39,46
"Cc1ccnc2c(Oc3ccc(NS(=O)(=O)c4ccc(Cl)cc4)cc3)cccc12 [Example 58, N-[4-(4-methylquinolin-8-yloxy)phenyl]-4-chlorobenzenesulphonamide]",–,58,–
"O=S(=O)(Nc1ccc(Oc2cccc3cccnc23)cc1)c1cccc(C(F)(F)F)c1 [Example 44, N-[4-(quinolin-8-yloxy)phenyl]-3-trifluoromethylbenzenesulphonamide]",–,–,38
"O=S(=O)(Nc1ccc(Oc2ccc3cccnc3c2)cc1)c1cccc(C(F)(F)F)c1 [Example 54, N-[4-(quinolin-7-yloxy)phenyl]-3-trifluoromethylbenzenesulphonamide]",170,–,–
"O=S(=O)(Nc1ccc(Oc2ccc3cccnc3c2)cc1)c1ccc(F)cc1 [Example 57, N-[4-(quinolin-7-yloxy)phenyl]-4-fluorobenzenesulphonamide]",33,–,–
"O=S(=O)(Nc1ccc(OCc2ccc3ccccc3n2)cc1)c1ccc(Cl)cc1 [Example 73, N-[4-(quinolin-2-yl-methyloxy)phenyl]-4-chlorobenzenesulphonamide]",100,–,–
"O=S(=O)(Nc1ccc(Oc2ccc3cccnc3c2)cc1)c1ccc(Cl)cc1 [Example 53, N-[4-(quinolin-7-yloxy)phenyl]-4-chlorobenzenesulphonamide]",88,–,–
"O=S(=O)(CCCCl)Nc1ccc(OCc2ccc3ccccc3n2)cc1 [Example 76, N-[4-(quinolin-2-yl-methyloxy)phenyl]-3-chloropropanesulphonamide]",46,–,37
"CCCC(C)S(=O)(=O)Nc1ccc(OCc2ccc3ccccc3n2)cc1 (centres unmarked) [Example 78, N-[4-(quinolin-2-yl-methyloxy)phenyl]-1-methylbutanesulphonamide]",74,65,–
